Data reported in PubChem BioAssay (NCI).
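GI50 = concentration required for 50% inhibition of growth. The concentration for full growth arrest is given as TGI.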

What was measured:
Test in all cases: NCI tumour cell line growth inhibition, 384-well format
HL-60(TB) leukemia = test system: HL-60(TB) leukemia
NCI-H23 lung = test system: NCI-H23 lung
HCC-2998 colon = test system: HCC-2998 colon
NCI/ADR-RES ovarian = test system: NCI/ADR-RES ovarian
TK-10 renal = test system: TK-10 renal
RXF 393 renal = test system: RXF 393 renal
IGROV1 ovarian = test system: IGROV1 ovarian
K-562 leukemia = test system: K-562 leukemia
COLO 205 colon = test system: COLO 205 colon
MCF7 breast = test system: MCF7 breast
RPMI-8226 leukemia = test system: RPMI-8226 leukemia
HT29 colon = test system: HT29 colon
LOX IMVI melanoma = test system: LOX IMVI melanoma
UACC-257 melanoma = test system: UACC-257 melanoma
OVCAR-5 ovarian = test system: OVCAR-5 ovarian
OVCAR-3 ovarian = test system: OVCAR-3 ovarian
HOP-62 NSCLC = test system: HOP-62 NSCLC
M14 melanoma = test system: M14 melanoma
DU-145 prostate = test system: DU-145 prostate
BT-549 breast = test system: BT-549 breast
MALME-3M melanoma = test system: MALME-3M melanoma
NCI-H226 lung = test system: NCI-H226 lung
SF-268 CNS = test system: SF-268 CNS
A549 NSCLC = test system: A549 NSCLC
T-47D breast = test system: T-47D breast
SN12C renal = test system: SN12C renal
786-0 renal = test system: 786-0 renal
SK-MEL-28 melanoma = test system: SK-MEL-28 melanoma
NCI-H460 NSCLC = test system: NCI-H460 NSCLC
OVCAR-4 ovarian = test system: OVCAR-4 ovarian
MOLT-4 leukemia = test system: MOLT-4 leukemia
MDA-MB-468 breast = test system: MDA-MB-468 breast
SNB-75 CNS = test system: SNB-75 CNS
PC-3 prostate = test system: PC-3 prostate
MDA-MB-435 melanoma = test system: MDA-MB-435 melanoma
SK-MEL-5 melanoma = test system: SK-MEL-5 melanoma
EKVX NSCLC = test system: EKVX NSCLC
SK-OV-3 ovarian = test system: SK-OV-3 ovarian
MDA-MB-231 breast = test system: MDA-MB-231 breast
SNB-19 CNS = test system: SNB-19 CNS
A498 renal = test system: A498 renal
SF-539 CNS = test system: SF-539 CNS
KM12 colon = test system: KM12 colon
UO-31 renal = test system: UO-31 renal
HOP-92 NSCLC = test system: HOP-92 NSCLC
CCRF-CEM leukemia = test system: CCRF-CEM leukemia
SR leukemia = test system: SR leukemia
SF-295 CNS = test system: SF-295 CNS
HS 578T breast = test system: HS 578T breast
HCT-116 colon = test system: HCT-116 colon
NCI-H522 lung = test system: NCI-H522 lung
ACHN renal = test system: ACHN renal
CAKI-1 renal = test system: CAKI-1 renal
OVCAR-8 ovarian = test system: OVCAR-8 ovarian
U251 glioblastoma = test system: U251 glioblastoma
SW-620 colon = test system: SW-620 colon
NCI-H322M lung = test system: NCI-H322M lung
HCT-15 colon = test system: HCT-15 colon

Structure (SMILES): COc1cccc2cc(-c3nc(C4CCC(C(=O)O)CC4)n4ncnc(N)c34)[nH]c12 (stereo unspecified)
- GI50 (HL-60(TB) leukemia): 11.3 µM
- TGI (HL-60(TB) leukemia): 23.8 µM
- GI50 (NCI-H23 lung): 2.3 µM
- TGI (NCI-H23 lung): 15 µM
- GI50 (HCC-2998 colon): 5.76 µM
- TGI (HCC-2998 colon): 44.1 µM
- GI50 (NCI/ADR-RES ovarian): 2.45 µM
- TGI (NCI/ADR-RES ovarian): 17 µM
- GI50 (TK-10 renal): 1.75 µM
- TGI (TK-10 renal): 11 µM
- GI50 (RXF 393 renal): 1.49 µM
- TGI (RXF 393 renal): 6.54 µM
- GI50 (IGROV1 ovarian): 0.36 µM
- TGI (IGROV1 ovarian): 4.38 µM
- GI50 (K-562 leukemia): 2.61 µM
- TGI (K-562 leukemia): 38 µM
- GI50 (COLO 205 colon): 1.18 µM
- TGI (COLO 205 colon): 26.6 µM
- GI50 (MCF7 breast): 0.229 µM
- TGI (MCF7 breast): > 100 µM
- GI50 (RPMI-8226 leukemia): 0.161 µM
- TGI (RPMI-8226 leukemia): 0.542 µM
- GI50 (HT29 colon): 8.51 µM
- TGI (HT29 colon): > 100 µM
- GI50 (LOX IMVI melanoma): 2.69 µM
- TGI (LOX IMVI melanoma): 10.3 µM
- GI50 (UACC-257 melanoma): 3.13 µM
- TGI (UACC-257 melanoma): 27 µM
- GI50 (OVCAR-5 ovarian): 3.09 µM
- TGI (OVCAR-5 ovarian): 67.5 µM
- GI50 (OVCAR-3 ovarian): 0.442 µM
- TGI (OVCAR-3 ovarian): 11.4 µM
- GI50 (HOP-62 NSCLC): 1.11 µM
- TGI (HOP-62 NSCLC): 5.42 µM
- GI50 (M14 melanoma): 0.727 µM
- TGI (M14 melanoma): 15.6 µM
- GI50 (DU-145 prostate): 3.71 µM
- TGI (DU-145 prostate): > 100 µM
- GI50 (BT-549 breast): 1.17 µM
- TGI (BT-549 breast): 5.36 µM
- GI50 (MALME-3M melanoma): 0.19 µM
- TGI (MALME-3M melanoma): 0.878 µM
- GI50 (NCI-H226 lung): 1.15 µM
- TGI (NCI-H226 lung): 6.68 µM
- GI50 (SF-268 CNS): 2.3 µM
- TGI (SF-268 CNS): 31.3 µM
- GI50 (A549 NSCLC): 2.9 µM
- TGI (A549 NSCLC): 27.9 µM
- GI50 (T-47D breast): 0.158 µM
- TGI (T-47D breast): 0.725 µM
- GI50 (SN12C renal): 0.941 µM
- TGI (SN12C renal): > 100 µM
- GI50 ([…]-0 renal): 3.33 µM
- TGI (786-0 renal): 19.5 µM
- GI50 (SK-MEL-28 melanoma): 0.453 µM
- TGI (SK-MEL-28 melanoma): 7.41 µM
- GI50 (NCI-H460 NSCLC): 0.39 µM
- TGI (NCI-H460 NSCLC): 13 µM
- GI50 (OVCAR-4 ovarian): 1.25 µM
- TGI (OVCAR-4 ovarian): 5.75 µM
- GI50 (MOLT-4 leukemia): 0.651 µM
- TGI (MOLT-4 leukemia): 10.2 µM
- GI50 (MDA-MB-468 breast): 0.21 µM
- TGI (MDA-MB-468 breast): 1.52 µM
- GI50 (SNB-75 CNS): 0.382 µM
- TGI (SNB-75 CNS): 2.81 µM
- GI50 (PC-3 prostate): 0.56 µM
- TGI (PC-3 prostate): 5.83 µM
- GI50 (MDA-MB-435 melanoma): 2.39 µM
- TGI (MDA-MB-435 melanoma): 11.4 µM
- GI50 (SK-MEL-5 melanoma): 0.518 µM
- TGI (SK-MEL-5 melanoma): 2.18 µM
- GI50 (EKVX NSCLC): 1.1 µM
- TGI (EKVX NSCLC): 11.6 µM
- GI50 (SK-OV-3 ovarian): 1.44 µM
- TGI (SK-OV-3 ovarian): 26.8 µM
- GI50 (MDA-MB-231 breast): 0.811 µM
- TGI (MDA-MB-231 breast): > 100 µM
- GI50 (SNB-19 CNS): 8.96 µM
- TGI (SNB-19 CNS): > 100 µM
- GI50 (A498 renal): 0.539 µM
- TGI (A498 renal): 4.25 µM
- GI50 (SF-539 CNS): 1.76 µM
- TGI (SF-539 CNS): 10.4 µM
- GI50 (KM12 colon): 0.964 µM
- TGI (KM12 colon): > 100 µM
- GI50 (UO-31 renal): 0.919 µM
- TGI (UO-31 renal): 15.8 µM
- GI50 (HOP-92 NSCLC): 1 µM
- TGI (HOP-92 NSCLC): 8.38 µM
- GI50 (CCRF-CEM leukemia): 0.738 µM
- TGI (CCRF-CEM leukemia): 10.5 µM
- GI50 (SR leukemia): 0.293 µM
- TGI (SR leukemia): 1.25 µM
- GI50 (SF-295 CNS): 1.16 µM
- TGI (SF-295 CNS): 4.99 µM
- GI50 (HS 578T breast): 0.302 µM
- TGI (HS 578T breast): 1.59 µM
- GI50 (HCT-116 colon): 4.13 µM
- TGI (HCT-116 colon): 62.4 µM
- GI50 (NCI-H522 lung): 0.4 µM
- TGI (NCI-H522 lung): > 100 µM
- GI50 (ACHN renal): 1.18 µM
- TGI (ACHN renal): 13 µM
- GI50 (CAKI-1 renal): 1.59 µM
- TGI (CAKI-1 renal): 8.1 µM
- GI50 (OVCAR-8 ovarian): 2.31 µM
- TGI (OVCAR-8 ovarian): 49.5 µM
- GI50 (U251 glioblastoma): 4.36 µM
- TGI (U251 glioblastoma): > 100 µM
- GI50 (SW-620 colon): 4.22 µM
- TGI (SW-620 colon): > 100 µM
- GI50 (NCI-H322M lung): 0.426 µM
- TGI (NCI-H322M lung): 21.5 µM
- GI50 (HCT-15 colon): 1.36 µM
- TGI (HCT-15 colon): 57 µM
